The target in experiment [1] is T1, human N-type Ca channel (Homo sapiens, UniProt Q00975). In words: Electrophysiological response, QPatch (depolarization -80 mV to +20 mV). To be noted: for inhibition at 10 µM: read-out: Qpatch Pulse=1 (percent inhibition).
The target of experiment [2] is T1, human N-type Ca channel. In words: Calcium influx assay (FDSS), KCl depolarization, Fluo8 dye. The class given is cell-based. Further details: host or cells: HEK 293. An outline of the steps:
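HEK293 cells stably expressing the human N-type Ca channel were loaded with Fluo8 and washed in choline-based buffer (pH 7.2, 2 mM CaCl2, 2 mM KCl). Cells were preincubated with serially diluted compound for 15 min in the dark. Ca influx was then recorded by fluorescence after depolarization with 100 mM KCl.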

Where [3] appears, read: N Type IC50 Data Qpatch Pulse=1, Pulse=1, concentration range 0.01-0.3 µM.
Where [4] appears, read: Pulse=15, concentration range 0.01-0.3 µM.
[5] abbreviates: HEK 293 cells expressing human N-type Ca channel, 100 mM KCl, read-out: N Type IC50 Data FDSS.
[6] abbreviates: concentration range 0.01-0.3 µM.
[7] abbreviates: N Type IC50 Data Qpatch Pulse=1, Pulse=1, concentration range 0.01-1 µM.
[8] abbreviates: Pulse=15, concentration range 0.01-1 µM.
The mark [9] stands for this setting: N Type IC50 Data Qpatch Pulse=1, Pulse=1, concentration range 0.3-10 µM.
[10] abbreviates: N Type IC50 Data Qpatch Pulse=15, Pulse=15, concentration range 0.3-10 µM.
The mark [11] stands for this setting: read-out: N Type IC50 Data Qpatch Pulse=15, Pulse=15, concentration range 0.01-1 µM.

The structures appear in SMILES notation.

T1 sequence (Q00975 whole entry): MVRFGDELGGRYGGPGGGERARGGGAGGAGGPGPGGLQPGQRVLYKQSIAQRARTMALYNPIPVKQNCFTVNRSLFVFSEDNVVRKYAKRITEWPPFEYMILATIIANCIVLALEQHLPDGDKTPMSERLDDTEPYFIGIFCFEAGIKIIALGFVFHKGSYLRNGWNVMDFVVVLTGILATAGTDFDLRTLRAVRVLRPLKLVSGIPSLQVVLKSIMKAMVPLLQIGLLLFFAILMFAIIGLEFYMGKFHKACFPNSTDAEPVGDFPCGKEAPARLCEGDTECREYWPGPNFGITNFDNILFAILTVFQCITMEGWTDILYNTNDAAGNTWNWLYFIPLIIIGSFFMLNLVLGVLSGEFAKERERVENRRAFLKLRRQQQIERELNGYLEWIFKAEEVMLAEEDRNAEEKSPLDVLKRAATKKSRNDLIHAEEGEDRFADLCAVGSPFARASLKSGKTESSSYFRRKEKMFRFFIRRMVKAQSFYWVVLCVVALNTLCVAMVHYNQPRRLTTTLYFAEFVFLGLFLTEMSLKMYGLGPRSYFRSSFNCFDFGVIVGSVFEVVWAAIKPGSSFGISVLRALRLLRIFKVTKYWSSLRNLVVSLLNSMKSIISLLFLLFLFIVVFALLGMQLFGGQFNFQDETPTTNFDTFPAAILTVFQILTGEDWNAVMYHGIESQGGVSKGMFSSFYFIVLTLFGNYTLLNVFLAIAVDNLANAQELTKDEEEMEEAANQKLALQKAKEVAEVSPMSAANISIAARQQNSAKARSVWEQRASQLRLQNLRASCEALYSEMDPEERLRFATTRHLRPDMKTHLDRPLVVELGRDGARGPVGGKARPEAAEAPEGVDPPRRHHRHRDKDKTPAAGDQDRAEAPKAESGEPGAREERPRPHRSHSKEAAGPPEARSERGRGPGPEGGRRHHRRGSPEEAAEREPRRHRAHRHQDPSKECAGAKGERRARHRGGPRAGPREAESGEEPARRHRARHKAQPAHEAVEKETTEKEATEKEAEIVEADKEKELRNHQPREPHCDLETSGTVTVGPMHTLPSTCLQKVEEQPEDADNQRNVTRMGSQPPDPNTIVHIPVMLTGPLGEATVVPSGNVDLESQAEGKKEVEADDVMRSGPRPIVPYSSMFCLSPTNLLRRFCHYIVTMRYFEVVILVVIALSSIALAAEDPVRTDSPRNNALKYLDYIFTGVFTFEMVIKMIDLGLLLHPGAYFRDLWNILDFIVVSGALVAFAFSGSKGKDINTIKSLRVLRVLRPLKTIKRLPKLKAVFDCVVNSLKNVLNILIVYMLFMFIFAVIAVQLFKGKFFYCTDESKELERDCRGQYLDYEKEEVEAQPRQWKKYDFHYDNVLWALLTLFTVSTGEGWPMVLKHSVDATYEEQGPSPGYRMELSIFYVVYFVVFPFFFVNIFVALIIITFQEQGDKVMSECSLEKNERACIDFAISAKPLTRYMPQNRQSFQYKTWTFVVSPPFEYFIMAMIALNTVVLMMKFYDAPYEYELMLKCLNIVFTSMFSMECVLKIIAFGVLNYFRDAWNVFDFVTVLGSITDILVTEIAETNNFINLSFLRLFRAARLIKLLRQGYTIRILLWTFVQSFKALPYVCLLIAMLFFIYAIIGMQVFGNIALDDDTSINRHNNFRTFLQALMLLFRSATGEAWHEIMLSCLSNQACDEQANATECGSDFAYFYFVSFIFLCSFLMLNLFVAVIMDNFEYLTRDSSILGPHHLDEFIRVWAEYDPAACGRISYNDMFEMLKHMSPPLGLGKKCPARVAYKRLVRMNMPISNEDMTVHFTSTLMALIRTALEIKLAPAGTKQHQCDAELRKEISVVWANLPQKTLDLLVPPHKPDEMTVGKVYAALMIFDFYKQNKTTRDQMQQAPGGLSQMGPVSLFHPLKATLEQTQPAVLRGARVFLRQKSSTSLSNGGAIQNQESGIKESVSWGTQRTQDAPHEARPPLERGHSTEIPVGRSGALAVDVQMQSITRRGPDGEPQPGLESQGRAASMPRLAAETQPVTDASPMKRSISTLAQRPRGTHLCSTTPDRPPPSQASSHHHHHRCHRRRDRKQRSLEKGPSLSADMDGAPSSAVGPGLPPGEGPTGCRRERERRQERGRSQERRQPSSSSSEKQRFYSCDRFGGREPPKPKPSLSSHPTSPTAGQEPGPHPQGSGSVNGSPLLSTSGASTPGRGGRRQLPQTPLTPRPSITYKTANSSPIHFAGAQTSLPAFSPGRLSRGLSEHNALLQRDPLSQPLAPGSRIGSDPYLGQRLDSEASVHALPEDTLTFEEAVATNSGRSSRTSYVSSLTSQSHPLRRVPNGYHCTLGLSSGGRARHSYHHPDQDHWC
T1 sequence (P54284 whole entry partner): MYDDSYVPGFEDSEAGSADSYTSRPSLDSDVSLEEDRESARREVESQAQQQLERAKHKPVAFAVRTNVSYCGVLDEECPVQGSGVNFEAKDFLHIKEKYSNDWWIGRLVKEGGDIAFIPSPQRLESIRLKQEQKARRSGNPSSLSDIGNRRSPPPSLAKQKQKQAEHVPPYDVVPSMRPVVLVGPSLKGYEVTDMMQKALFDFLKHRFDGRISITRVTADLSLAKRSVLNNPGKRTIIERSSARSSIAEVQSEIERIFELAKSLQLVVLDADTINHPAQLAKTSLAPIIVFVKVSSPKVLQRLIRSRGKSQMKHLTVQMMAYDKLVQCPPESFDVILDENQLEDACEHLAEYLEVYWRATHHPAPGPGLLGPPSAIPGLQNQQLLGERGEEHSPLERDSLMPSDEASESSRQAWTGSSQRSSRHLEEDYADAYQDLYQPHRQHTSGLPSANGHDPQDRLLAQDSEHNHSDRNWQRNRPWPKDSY
T1 sequence (P54289 25-956 partner limits assumed): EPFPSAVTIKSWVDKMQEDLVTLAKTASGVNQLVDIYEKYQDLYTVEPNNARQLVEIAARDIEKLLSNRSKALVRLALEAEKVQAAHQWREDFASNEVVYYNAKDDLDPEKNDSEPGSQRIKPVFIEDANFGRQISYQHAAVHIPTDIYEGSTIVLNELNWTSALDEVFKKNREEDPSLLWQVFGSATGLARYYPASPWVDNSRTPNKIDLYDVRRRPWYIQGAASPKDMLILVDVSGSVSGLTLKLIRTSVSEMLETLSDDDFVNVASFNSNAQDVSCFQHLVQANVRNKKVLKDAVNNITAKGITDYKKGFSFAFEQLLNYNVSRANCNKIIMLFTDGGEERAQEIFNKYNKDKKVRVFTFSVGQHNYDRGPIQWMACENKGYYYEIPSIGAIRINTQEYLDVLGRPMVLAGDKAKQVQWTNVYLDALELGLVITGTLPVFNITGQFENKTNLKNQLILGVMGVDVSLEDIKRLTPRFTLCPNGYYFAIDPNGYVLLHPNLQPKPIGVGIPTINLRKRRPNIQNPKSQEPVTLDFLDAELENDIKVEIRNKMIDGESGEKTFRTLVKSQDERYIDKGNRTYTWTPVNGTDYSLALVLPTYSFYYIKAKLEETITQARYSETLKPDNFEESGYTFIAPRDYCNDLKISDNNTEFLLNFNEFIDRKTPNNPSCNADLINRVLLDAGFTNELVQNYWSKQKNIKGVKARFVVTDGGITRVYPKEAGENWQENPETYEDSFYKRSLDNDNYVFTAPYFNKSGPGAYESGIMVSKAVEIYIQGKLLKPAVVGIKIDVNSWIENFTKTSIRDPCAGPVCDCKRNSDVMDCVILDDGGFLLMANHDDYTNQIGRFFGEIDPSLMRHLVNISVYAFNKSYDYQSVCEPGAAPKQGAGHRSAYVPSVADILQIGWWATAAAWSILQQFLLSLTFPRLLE
T1 sequence (P54289 957-1103 partner limits assumed): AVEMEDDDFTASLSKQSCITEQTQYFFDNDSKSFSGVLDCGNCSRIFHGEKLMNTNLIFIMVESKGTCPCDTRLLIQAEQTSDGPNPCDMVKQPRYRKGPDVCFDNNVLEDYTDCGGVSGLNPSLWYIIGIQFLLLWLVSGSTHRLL

Turning to `CCOc1ncccc1-c1nc(C2CC(C)(C)OC(C)(C)C2)cn1-c1ccc(C#N)c(F)c1` [Compound 89, 4-(2-(2-ethoxypyridin-3-yl)-4-(2,2,6,6-tetramethyltetrahydro-2H-pyran-4-yl)-1H-imidazol-1-yl)-2-fluorobenzonitrile], the IC50 came out at 0.517 µM on human N-type Ca channel [1] (setting [3]) and 0.205 µM at human N-type Ca channel [2] (setting [5]). Further, at human N-type Ca channel [1] (setting [4]), the “N Type IC50 Data Qpatch Pulse=15” value is “poor fit(0.01-0.3 µM)”.

Turning to `COc1ncccc1-c1nc(C2CC(C)(C)OC(C)(C)C2)cn1-c1cccc(F)c1F` [Compound 31, 3-(1-(2,3-difluorophenyl)-4-(2,2,6,6-tetramethyltetrahydro-2H-pyran-4-yl)-1H-imidazol-2-yl)-2-methoxypyridine], the IC50 at human N-type Ca channel [1] (setting [3]) turned out to be 1.58 µM; on human N-type Ca channel [2] (setting [5]), 0.769 µM. Also, the “N Type IC50 Data Qpatch Pulse=15” value on human N-type Ca channel [1] (setting [4]) was “poor fit(0.01-0.3 ,u.M)”.

Consider `COc1ncccc1-c1nc(C2CC(C)(C)OC(C)(C)C2)cn1Cc1ccc(Cl)cc1` [Compound 28, 3-(1-(4-chlorobenzyl)-4-(2,2,6,6-tetramethyltetrahydro-2H-pyran-4-yl)-1H-imidazol-2-yl)-2-methoxypyridine], for which the “N Type IC50 Data Qpatch Pulse=1” value on human N-type Ca channel [1] (setting [6]) is “poor fit(0.01-0.3 µM)”. The “N Type IC50 Data Qpatch Pulse=15” value at human N-type Ca channel [1] (setting [4]) was “poor fit(0.01-0.3 µM)”. For the same compound, the IC50 on human N-type Ca channel [2] (setting [5]) amounted to 1.64 µM.

In the case of `COc1ncccc1-c1nc(C2CC(C)(C)OC(C)(C)C2)cn1-c1cc(F)ccc1F` [Compound 71, 3-(1-(2,5-difluorophenyl)-4-(2,2,6,6-tetramethyltetrahydro-2H-pyran-4-yl)-1H-imidazol-2-yl)-2-methoxypyridine], the IC50 against human N-type Ca channel [1] (setting [7]) worked out at 5.83 µM; at human N-type Ca channel [2] (setting [5]) it was 0.422 µM. Moreover, at human N-type Ca channel [1] (setting [8]), the “N Type IC50 Data Qpatch Pulse=15” value is reported as “poor fit(0.01- 1 µM)”.

For the compound `COc1nccnc1-c1nc(C2CC(C)(C)OC(C)(C)C2)cn1-c1ccc(C#N)c(F)c1` [Compound 88, 2-fluoro-4-(2-(3-methoxypyrazin-2-yl)-4-(2,2,6,6-tetramethyltetrahydro-2H-pyran-4-yl)-1H-imidazol-1-yl)benzonitrile], the figures for the half-maximal inhibitory concentration (IC50) on human N-type Ca channel [1] (setting [3]) and at human N-type Ca channel [2] (setting [5]) were 0.349 µM and 2.17 µM, respectively. Moreover, the “N Type IC50 Data Qpatch Pulse=15” value at human N-type Ca channel [1] (setting [4]) was “poor fit(0.01-0.3 µM)”.

For the compound `CCOc1ccc(-n2cc(C3CC(C)(C)OC(C)(C)C3)nc2-c2cccnc2OC)cn1` [Compound 75, 3-(1-(6-ethoxypyridin-3-yl)-4-(2,2,6,6-tetramethyltetrahydro-2H-pyran-4-yl)-1H-imidazol-2-yl)-2-methoxypyridine], the values for the IC50 at human N-type Ca channel [1] (setting [9]), at human N-type Ca channel [1] (setting [10]) and on human N-type Ca channel [2] (setting [5]) were 9.8 µM, 4.2 µM and 2.06 µM, respectively.

Turning to `COc1ncccc1-c1nc(C2CC(C)(C)OC(C)(C)C2)c(Cl)n1-c1ccc(Cl)cc1` [Compound 93, 3-(5-chloro-1-(4-chlorophenyl)-4-(2,2,6,6-tetramethyltetrahydro-2H-pyran-4-yl)-1H-imidazol-2-yl)-2-methoxypyridine], the 50% inhibitory concentration (IC50) against human N-type Ca channel [1] (setting [9]) amounted to 6.5 µM; at human N-type Ca channel [1] (setting [10]) it was 1.8 µM; at human N-type Ca channel [2], 0.15 µM.

Take `COc1ccccc1-c1nc(C2(O)CC(C)(C)OC(C)(C)C2)cn1-c1ccc(F)c(Cl)c1` [Compound 111, 4-(1-(3-chloro-4-fluorophenyl)-2-(2-methoxyphenyl)-1H-imidazol-4-yl)-2,2,6,6-tetramethyltetrahydro-2H-pyran-4-ol]: the IC50 at human N-type Ca channel [1] (setting [10]) came out at 2.5 µM; at human N-type Ca channel [2] (setting [5]), 0.257 µM. In addition, the inhibition at 10 µM at human N-type Ca channel [1] stood at 62%.

Regarding `COc1ccccc1-c1nc(C2CC(C)(C)OC(C)(C)C2)cn1Cc1cccc(C#N)c1` [Compound 101, 3-((2-(2-methoxyphenyl)-4-(2,2,6,6-tetramethyltetrahydro-2H-pyran-4-yl)-1H-imidazol-1-yl)methyl) benzonitrile], the half-inhibitory concentration (IC50) against human N-type Ca channel [1] (setting [7]) was over 1 µM; on human N-type Ca channel [1] (setting [11]) it was over 1 µM; on human N-type Ca channel [2] (setting [5]), 3.58 µM.

With `COc1cccnc1-c1nc(C2CC(C)(C)OC(C)(C)C2)cn1-c1ccc(F)c(Cl)c1` [Compound 17, 2-(1-(3-chloro-4-fluorophenyl)-4-(2,2,6,6-tetramethyltetrahydro-2H-pyran-4-yl)-1H-imidazol-2-yl)-3-methoxypyridine], the IC50 at human N-type Ca channel [1] (setting [9]) came out at 4.4 µM; against human N-type Ca channel [1] (setting [10]), 5.2 µM; on human N-type Ca channel [2] (setting [5]), 0.591 µM.

In the case of `CCOc1nccnc1-c1nc(C2CC(C)(C)OC(C)(C)C2)cn1-c1ccc(Cl)cc1` [Compound 60, 2-(1-(4-chlorophenyl)-4-(2,2,6,6-tetramethyltetrahydro-2H-pyran-4-yl)-1H-imidazol-2-yl)-3-ethoxypyrazine], the results for the half-inhibitory concentration (IC50) on human N-type Ca channel [1] (setting [3]) and on human N-type Ca channel [2] (setting [5]) were 0.247 µM and 0.321 µM, respectively. Besides, the “N Type IC50 Data Qpatch Pulse=15” value at human N-type Ca channel [1] (setting [4]) is “poor fit(0.01-0.3 µM)”.

As for `COc1cc(-n2cc(C3CC(C)(C)OC(C)(C)C3)nc2-c2ccccc2OC)ccc1C#N` [Compound 34, 2-methoxy-4-(2-(2-methoxyphenyl)-4-(2,2,6,6-tetramethyltetrahydro-2H-pyran-4-yl)-1H-imidazol-1-yl)benzonitrile], the IC50 on human N-type Ca channel [1] (setting [11]) was over 1 µM; on human N-type Ca channel [2] (setting [5]) it was 1.62 µM.

Turning to `COc1ncccc1-c1nc(C2CC(C)(C)OC(C)(C)C2)cn1-c1cc(F)cc(F)c1` [Compound 72, 3-(1-(3,5-difluorophenyl)-4-(2,2,6,6-tetramethyltetrahydro-2H-pyran-4-yl)-1H-imidazol-2-yl)-2-methoxypyridine], at human N-type Ca channel [1] (concentration range 0.01-1 µM), the “N Type IC50 Data Qpatch Pulse=1” value is “poor fit(0.01- 1 µM)”. In addition, on human N-type Ca channel [1] (setting [8]), the “N Type IC50 Data Qpatch Pulse=15” value is recorded as “poor fit(0.01- 1 µM)”. Further, on human N-type Ca channel [2] (setting [5]), the IC50 amounted to 2.4 µM.

For `COc1ccccc1-c1nc(C2CC(C)(C)OC(C)(C)C2)cn1-c1ccc(OC(F)F)cc1` [Compound 61, 1-(4-(difluoromethoxy)phenyl) -2-(2-methoxyphenyl)-4-(2,2,6,6-tetramethyltetrahydro-2H-pyran-4-yl)-1H-imidazole], the concentration for half-maximal inhibition (IC50) came out at 0.751 µM at human N-type Ca channel [1] (setting [3]); 1.05 µM on human N-type Ca channel [1] (N Type IC50 Data Qpatch Pulse=15, Pulse=15, concentration range 0.01-0.3 µM); 0.037 µM at human N-type Ca channel [2] (setting [5]).

In the case of `COc1ccccc1-c1nc(C2CC(C)(C)OC(C)(C)C2)cn1-c1ccc(Cl)c(C#N)c1` [Compound 14, 2-chloro-5-(2-(2-methoxyphenyl)-4-(2,2,6,6-tetramethyltetrahydro-2H-pyran-4-yl)-1H-imidazol-1-yl)benzonitrile], the IC50 against human N-type Ca channel [1] (setting [7]) is 0.266 µM; on human N-type Ca channel [1] (N Type IC50 Data Qpatch Pulse=15, Pulse=15, concentration range 0.01-1 µM) it was over 1 µM; on human N-type Ca channel [2] (setting [5]), 2.7 µM.

For `COc1ncccc1-c1nc(C2CC(C)(C)OC(C)(C)C2)cn1-c1ccc(C#N)cc1` [Compound 43, 4-(2-(2-methoxypyridin-3-yl)-4-(2,2,6,6-tetramethyltetrahydro-2H-pyran-4-yl)-1H-imidazol-1-yl)benzonitrile], the results for the IC50 at human N-type Ca channel [1] (setting [10]) and on human N-type Ca channel [2] (setting [5]) were 7.5 µM and 0.291 µM, respectively. Further, at human N-type Ca channel [1], the inhibition at 10 µM worked out at 34%.

As for `COc1ccc(-n2cc(C3CC(C)(C)OC(C)(C)C3)nc2-c2cccnc2OC)cc1F` [Compound 23, 3-(1-(3-fluoro-4-methoxyphenyl)-4-(2,2,6,6-tetramethyltetrahydro-2H-pyran-4-yl)-1H-imidazol-2-yl)-2-methoxypyridine], the IC50 at human N-type Ca channel [1] (setting [11]) was over 1 µM; at human N-type Ca channel [2] (setting [5]), 0.31 µM.

For `COc1ncccc1-c1nc(C2CC(C)(C)OC(C)(C)C2)cn1-c1ccc(Cl)c(C#N)c1` [Compound 84, 2-chloro-5-(2-(2-methoxypyridin-3-yl)-4-(2,2,6,6-tetramethyltetrahydro-2H-pyran-4-yl)-1H-imidazol-1-yl)benzonitrile], the concentration for half-maximal inhibition (IC50) at human N-type Ca channel [1] (setting [11]) was over 1 µM; on human N-type Ca channel [2] (setting [5]), 0.362 µM.

On to `COc1ncccc1-c1nc(C2CC(C)(C)OC(C)(C)C2)cn1-c1cc(F)cc(C#N)c1` [Compound 73, 3-fluoro-5-(2-(2-methoxypyridin-3-yl)-4-(2,2,6,6-tetramethyltetrahydro-2H-pyran-4-yl)-1H-imidazol-1-yl)benzonitrile], for which, on human N-type Ca channel [1] (concentration range 0.01-1 µM), the “N Type IC50 Data Qpatch Pulse=1” value is “poor fit(0.01- 1 µM)”. The “N Type IC50 Data Qpatch Pulse=15” value at human N-type Ca channel [1] (setting [8]) is reported as “poor fit(0.01- 1 µM)”. At human N-type Ca channel [2] (setting [5]), the IC50 is 8.16 µM.

Consider `COc1cc(-n2cc(C3CC(C)(C)OC(C)(C)C3)nc2-c2cccnc2OC)ccc1F` [Compound 24, 3-(1-(4-fluoro-3-methoxyphenyl)-4-(2,2,6,6-tetramethyltetrahydro-2H-pyran-4-yl)-1H-imidazol-2-yl)-2-methoxypyridine], for which the 50% inhibitory concentration (IC50) is over 1 µM on human N-type Ca channel [1] (setting [11]) and 7.15 µM at human N-type Ca channel [2] (setting [5]).

As for `COc1ccncc1-c1nc(C2CC(C)(C)OC(C)(C)C2)cn1-c1ccc(F)c(Cl)c1` [Compound 20, 3-(1-(3-chloro-4-fluorophenyl)-4-(2,2,6,6-tetramethyltetrahydro-2H-pyran-4-yl)-1H-imidazol-2-yl)-4-methoxypyridine], the half-inhibitory concentration (IC50) was over 1 µM at human N-type Ca channel [1] (setting [7]), over 1 µM at human N-type Ca channel [1] (setting [11]) and 1.06 µM on human N-type Ca channel [2] (setting [5]).

Turning to `COc1ccccc1-c1nc(C2CC(C)(C)OC(C)(C)C2)cn1-c1c(F)cc(C#N)cc1F` [Compound 83, 3,5-difluoro-4-(2-(2-methoxyphenyl)-4-(2,2,6,6-tetramethyltetrahydro-2H-pyran-4-yl)-1H-imidazol-1-yl)benzonitrile], at human N-type Ca channel [1] (setting [6]), the “N Type IC50 Data Qpatch Pulse=1” value is listed as “poor fit(0.01-0.3 µM)”. At human N-type Ca channel [1] (setting [4]), the “N Type IC50 Data Qpatch Pulse=15” value is reported as “poor fit(0.01-0.3 µM)”. Also, the half-maximal inhibitory concentration (IC50) at human N-type Ca channel [2] is 0.049 µM.

Consider `COc1ccccc1-c1nc(C2CC(C)(C)OC(C)(C)C2)cn1-c1ccc(C#N)c(C)c1` [Compound 21, 4-(2-(2-methoxyphenyl)-4-(2,2,6,6-tetramethyltetrahydro-2H-pyran-4-yl)-1H-imidazol-1-yl)-2-methylbenzonitrile], for which the IC50 stood at 0.639 µM at human N-type Ca channel [1] (setting [7]) and 0.119 µM on human N-type Ca channel [2] (setting [5]).

Values taken from patent publication EP3033337B1, “SUBSTITUTED IMIDAZOLES AS N-TYPE CALCIUM CHANNEL BLOCKERS” (Janssen Pharmaceutica NV, priority 2013, dated 2015).
